Data taken from ChEMBL document CHEMBL1156236, “Trypanoside, anti-tuberculosis, leishmanicidal, and cytotoxic activities of tetrahydrobenzothienopyrimidines” (Bioorg Med Chem, 2010).
pIC50: −log10 of the molar value. ≈ marks a conversion by molar mass, not a printed value.

Tests used:
A549 = assay: Cytotoxicity against human A549 cells; format: functional
HOP-62 = assay: Cytotoxicity against human HOP62 cells; format: functional
HCT-15 = assay: Cytotoxicity against human HCT15 cells; format: functional
[1] = Cytotoxicity against BALB mouse 3T3 cells; format: cell-based; settings: BALB 3T3 cells
UACC-257 = assay: Cytotoxicity against human UACC257 cells; format: functional
COLO 205 = assay: Cytotoxicity against human COLO205 cells; format: functional
ACHN = assay: Cytotoxicity against human ACHN cells; format: functional
[2] = tested on: Mycobacterium tuberculosis; assay: Antitubercular activity against Mycobacterium tuberculosis H37Rv ATCC 27294 after 7 days by microplate alamar blue assay; format: functional; settings: H37Rv ATCC 27294, 168 h
SK-MEL-5 = assay: Cytotoxicity against human SK-MEL-5 cells; format: functional
OVCAR-4 = assay: Cytotoxicity against human OVCAR4 cells; format: functional
HL-60(TB) = assay: Cytotoxicity against human HL-60(TB) cells; format: functional
SNB-75 = assay: Cytotoxicity against human SNB75 cells; format: functional
[3] = Cytotoxicity against human Hs 578T cells; format: functional
MDA-MB-231 = assay: Cytotoxicity against human MDA-MB-231 cells; format: functional
OVCAR-3 = assay: Cytotoxicity against human OVCAR-3 cells; format: functional
RXF 393 = assay: Cytotoxicity against human RXF393 cells; format: functional
Trypanosoma cruzi = assay: Antitrypanosomal activity against Trypanosoma cruzi tulahuen C4 trypomastigotes infected in african green monkey Vero cells assessed as CPRG cleavage after 120 hrs by microplate reader; format: functional, organism-based
Leishmania peruviana = assay: Antileishmanial activity against Leishmania peruviana MHOM/PE/LCA08 promastigote infected BALB/c mouse macrophages after 48 hrs by Giemsa staining method; format: functional, organism-based; settings: MHOM/PE/LCA08, 48 h
OVCAR-8 = assay: Cytotoxicity against human OVCAR8 cells; format: functional
HOP-92 = assay: Cytotoxicity against human HOP92 cells; format: functional
CCRF-CEM = assay: Cytotoxicity against human CCRF-CEM cells; format: functional
HT-29 = assay: Cytotoxicity against human HT-29 cells; format: functional
MDA-MB-435 = assay: Cytotoxicity against human MDA-MB-435 cells; format: functional
MDA-MB-468 = assay: Cytotoxicity against human MDA-MB-468 cells; format: functional
Malme-3M = assay: Cytotoxicity against human MALME-3M cells; format: functional
LOX IMVI = assay: Cytotoxicity against human LOXIMVI cells; format: functional
A498 = assay: Cytotoxicity against human A498 cells; format: functional
[4] = Cytotoxicity against BALB/c mouse macrophages after 48 hrs by trypan blue dye exclusion method; format: cell-based; settings: Macrophage
K562 = assay: Cytotoxicity against human K562 cells; format: functional
NCI-H226 = assay: Cytotoxicity against human NCI-H226 cells; format: functional
786-0 = assay: Cytotoxicity against human 786-0 cells; format: functional
SR = assay: Cytotoxicity against human SR cells; format: functional
SN12C = assay: Cytotoxicity against human SN12C cells; format: functional
MOLT-4 = assay: Cytotoxicity against human MOLT4 cells; format: functional
NCI-H322M = assay: Cytotoxicity against human NCI-H322M cells; format: functional
DU-145 = assay: Cytotoxicity against human DU145 cells; format: functional
SK-MEL-2 = assay: Cytotoxicity against human SK-MEL-2 cells; format: functional
Leishmania braziliensis = assay: Antileishmanial activity against Leishmania braziliensis MHOM/PE/PER006 promastigote infected BALB/c mouse macrophages after 48 hrs by Giemsa staining method; format: functional, organism-based; settings: MHOM/PE/PER006, 48 h
KM12 = assay: Cytotoxicity against human KM12 cells; format: functional
Leishmania amazonensis [5] = assay: Antileishmanial activity against Leishmania amazonensis MHOM/BR/76/LTB-012 amastigotes infected BALB/c mouse macrophages after 48 hrs by MTT assay; format: functional, organism-based; settings: MHOM/BR/76/LTB-012, 48 h
IGROV-1 = assay: Cytotoxicity against human IGROV1 cells; format: functional
OVCAR-5 = assay: Cytotoxicity against human OVCAR5 cells; format: functional
Leishmania amazonensis [6] = assay: Antileishmanial activity against Leishmania amazonensis Lma CL1 amastigotes infected BALB/c mouse macrophages after 48 hrs by Giemsa staining method; format: functional, organism-based; settings: Lma CL1, 48 h
SF-539 = assay: Cytotoxicity against human SF539 cells; format: functional
[7] = read-out: LC50 (the source's name)

C(=N\Nc1ncnc2sc3c(c12)CCCC3)/c1ccccn1
GI50 (A549): 0.389 µM
TGI (A549): 14.9 µM
CC50 (A549; [7]): 70 µM
GI50 (HOP-62): 0.395 µM
TGI (HOP-62): 17.7 µM
CC50 (HOP-62; [7]): > 100 µM
GI50 (HCT-15): 0.45 µM
TGI (HCT-15): 27 µM
CC50 (HCT-15; [7]): > 100 µM
GI50 [1]: 0.04 µM
GI50 (UACC-257): 0.355 µM
CC50 (UACC-257; [7]): 41.7 µM
GI50 (COLO 205): 0.315 µM
TGI (COLO 205): 14.7 µM
CC50 (COLO 205; [7]): 54.5 µM
GI50 (ACHN): 0.313 µM
TGI (ACHN): 11 µM
CC50 (ACHN; [7]): > 100 µM
MIC [2]: 145 µM (≈ 44.9 µg/mL)
GI50 (SK-MEL-5): 0.332 µM
TGI (SK-MEL-5): 1.72 µM
CC50 (SK-MEL-5; [7]): 23.6 µM
GI50 (OVCAR-4): 0.431 µM
TGI (OVCAR-4): 26.3 µM
CC50 (OVCAR-4; [7]): > 0.1 µM
GI50 (HL-60(TB)): 0.12 µM
TGI (HL-60(TB)): 0.407 µM
CC50 (HL-60(TB); [7]): > 100 µM
GI50 (SNB-75): 0.585 µM
TGI (SNB-75): 14.7 µM
CC50 (SNB-75; [7]): 49.3 µM
GI50 [3]: 0.748 µM
TGI [3]: 23.9 µM
CC50 [3, 7]: > 100 µM
GI50 (MDA-MB-231): 0.603 µM
TGI (MDA-MB-231): 29.7 µM
CC50 (MDA-MB-231; [7]): > 100 µM
GI50 (OVCAR-3): 0.109 µM
TGI (OVCAR-3): 14.5 µM
CC50 (OVCAR-3; [7]): 43.9 µM
GI50 (RXF 393): 0.423 µM
TGI (RXF 393): 10.6 µM
CC50 (RXF 393; [7]): 45.3 µM
pIC50 (Trypanosoma cruzi): 5.41
pIC50 (Leishmania peruviana): 6.15
GI50 (OVCAR-8): 0.481 µM
TGI (OVCAR-8): > 1 µM
CC50 (OVCAR-8; [7]): > 0.1 µM
GI50 (HOP-92): 0.417 µM
TGI (HOP-92): 31 µM
CC50 (HOP-92; [7]): > 100 µM
GI50 (CCRF-CEM): 0.242 µM
TGI (CCRF-CEM): 0.769 µM
CC50 (CCRF-CEM; [7]): > 100 µM
GI50 (HT-29): 0.1 µM
LC50 (lethal concentration, 50% cell kill) (HT-29): 44.9 µM
TGI (HT-29): 15.1 µM
GI50 (MDA-MB-435): 0.477 µM
TGI (MDA-MB-435): 25.1 µM
CC50 (MDA-MB-435; [7]): > 100 µM
GI50 (MDA-MB-468): 0.2 µM
TGI (MDA-MB-468): 0.505 µM
CC50 (MDA-MB-468; [7]): 41 µM
GI50 (Malme-3M): 0.275 µM
TGI (Malme-3M): 10.3 µM
CC50 (Malme-3M; [7]): 51.4 µM
GI50 (LOX IMVI): 0.256 µM
CC50 (LOX IMVI; [7]): 34.8 µM
GI50 (A498): 0.428 µM
TGI (A498): 8.81 µM
CC50 (A498; [7]): 37.2 µM
pIC50 [4]: 5.19
GI50 (K562): 0.16 µM
TGI (K562): 10.8 µM
CC50 (K562; [7]): > 100 µM
GI50 (NCI-H226): 0.385 µM
TGI (NCI-H226): 16.2 µM
CC50 (NCI-H226; [7]): > 100 µM
GI50 (786-0): 0.333 µM
TGI (786-0): 0.947 µM
CC50 (786-0; [7]): 44.4 µM
GI50 (SR): 0.368 µM
TGI (SR): 0.953 µM
CC50 (SR; [7]): > 100 µM
GI50 (SN12C): 0.426 µM
TGI (SN12C): 15.3 µM
CC50 (SN12C; [7]): 81 µM
GI50 (MOLT-4): 0.261 µM
TGI (MOLT-4): 0.774 µM
CC50 (MOLT-4; [7]): > 100 µM
GI50 (NCI-H322M): 0.216 µM
TGI (NCI-H322M): 35 µM
CC50 (NCI-H322M; [7]): > 100 µM
GI50 (DU-145): 0.37 µM
LC50 (DU-145): 51.6 µM
TGI (DU-145): 15.1 µM
GI50 (SK-MEL-2): 7.51 µM
TGI (SK-MEL-2): 25.5 µM
CC50 (SK-MEL-2; [7]): 67.8 µM
pIC50 (Leishmania braziliensis): 6.22
GI50 (KM12): 0.515 µM
TGI (KM12): 12.7 µM
CC50 (KM12; [7]): 38 µM
pIC50 (Leishmania amazonensis [5]): 6.30
GI50 (IGROV-1): 0.45 µM
TGI (IGROV-1): 28.9 µM
CC50 (IGROV-1; [7]): > 100 µM
GI50 (OVCAR-5): 0.823 µM
TGI (OVCAR-5): 31.4 µM
CC50 (OVCAR-5; [7]): > 0.1 µM
pIC50 (Leishmania amazonensis [6]): < 5.70
GI50 (SF-539): 0.391 µM
TGI (SF-539): 0.384 µM
CC50 (SF-539; [7]): 29.2 µM
